The record followed here is patent publication US20240116985A1, “STAPLED PEPTIDES AND METHODS THEREOF” (priority 2020, published 2024).

By Solubility is commonly meant how much of the substance goes into solution per volume. The low end stands for a poorly soluble substance, the high end for a readily soluble substance. A word on the IC50: it is the point on the concentration scale where inhibition reaches its midpoint.

≈ marks a conversion by molar mass, not a printed value. Where two headings read alike, the source gives them in different places. Where only a bound is given, the exact number is not on record here.

The nature of one data set: Solubility in PBS. Format: physicochemical. The essentials: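 The PBS solution was ultracentrifuged and the supernatant analyzed by HPLC. Its peak area was divided by that of a 50 μM peptide DMSO reference injection and multiplied by 50 uM to give solubility.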
In data set [1] the target is T1, full-length beta-Catenin (Uniprot ID P35222) (Homo sapiens, UniProt P35222).
T1 construct: 10 nM full-length beta-Catenin (Uniprot ID P35222)
T1 sequence (P35222 1-781): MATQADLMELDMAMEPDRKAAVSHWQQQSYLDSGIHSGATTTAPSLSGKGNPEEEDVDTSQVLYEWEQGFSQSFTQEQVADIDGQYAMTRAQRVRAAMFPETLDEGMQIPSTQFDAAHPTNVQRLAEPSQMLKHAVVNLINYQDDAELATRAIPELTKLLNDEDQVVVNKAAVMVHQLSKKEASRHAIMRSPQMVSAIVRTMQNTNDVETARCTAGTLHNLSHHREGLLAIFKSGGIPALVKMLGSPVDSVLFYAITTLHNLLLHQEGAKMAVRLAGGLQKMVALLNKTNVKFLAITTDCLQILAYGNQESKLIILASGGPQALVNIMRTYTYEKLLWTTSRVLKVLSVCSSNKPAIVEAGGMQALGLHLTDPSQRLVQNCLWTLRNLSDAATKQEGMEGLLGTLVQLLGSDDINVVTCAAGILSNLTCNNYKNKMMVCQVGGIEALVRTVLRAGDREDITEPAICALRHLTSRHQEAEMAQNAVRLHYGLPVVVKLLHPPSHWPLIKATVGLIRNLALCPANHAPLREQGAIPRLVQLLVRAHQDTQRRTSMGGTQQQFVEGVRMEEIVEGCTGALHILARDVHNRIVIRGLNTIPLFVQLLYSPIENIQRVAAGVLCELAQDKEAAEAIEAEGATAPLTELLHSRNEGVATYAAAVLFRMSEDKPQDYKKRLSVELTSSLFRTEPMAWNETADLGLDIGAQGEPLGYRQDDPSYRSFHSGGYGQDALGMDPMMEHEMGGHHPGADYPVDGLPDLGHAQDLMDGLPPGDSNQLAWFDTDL
As to the kind of experiment: Fluorescence polarization IC50 (beta-catenin / 5FAM-TCF4 10-53 competition). The class given is binding. The following applies: fluorescence polarization; read-out: beta-Catenin FP IC50.

The target in data set [2] is T2, beta-catenin/TCF4 engagement (Homo sapiens, UniProt P35222).
T2 construct: expressed in transfected cells; host or cells: HEK293
T2 sequence (P35222 1-781): T1 sequence (P35222 1-781)
As to the kind of experiment: Nano-BRET target engagement assay (B-cat-Halo & TCF4-Luc in HEK293 cells). The following applies: absolute IC50; read-out: NanoBRET Abs IC50. Format: cell-based. For orientation: Bioluminescence resonance energy transfer reports proximity on the nanometre scale.

In the case of `CC(=O)N1CCC[C@]12CC=CCCCC1(CCCC=CCCCOC(=O)N3CC[C@@](C(=O)N[C@@H](Cc4ccccc4Cl)C(=O)N[C@@H](Cc4csc5ccccc45)C(=O)N[C@H](CO)[C@@H](C)O)(C3)NC(=O)[C@H]([C@@H](C)O)NC(=O)[C@H](Cc3ccccc3)NC(=O)[C@H](C)NC(=O)[C@H](C)NC(=O)[C@H]([C@@H](C)O)NC(=O)[C@H](CC(=O)O)NC1=O)NC(=O)[C@H](CC1CCCCC1)NC(=O)[C@H](CC(=O)O)NC2=O` (stereo partly drawn) [I-1310, Ac-PL3-Asp-Cha-B5-Asp-Thr-Ala-Ala-Phe-Thr-PyrS2-2ClF-BztA-Thro1], in “Solubility in PBS”, the “Solubility” value came to 10 µM (≈ 19.1 µg/mL). Moreover, the IC50 was 124 nM in data set [1] and above 20000 nM in data set [2].
The corresponding values for `CC(=O)N1CCC[C@]12CC=CCCCC1(CCCC=CCCCOC(=O)N3CC[C@@](C(=O)N[C@@H](Cc4ccccc4Cl)C(=O)N[C@@H](Cc4csc5ccccc45)C(=O)N[C@H](CO)[C@@H](C)O)(C3)NC(=O)[C@H](Cc3ccccc3)NC(=O)[C@H](Cc3ccccc3)NC(=O)[C@H](C)NC(=O)[C@H](C)NC(=O)[C@H](CC(=O)O)NC(=O)[C@H](CC(=O)O)NC1=O)NC(=O)[C@H](CC(C)(C)C)NC(=O)[C@H](CC(=O)O)NC2=O` (stereo partly drawn) [I-1311, Ac-PL3-Asp-Npg-B5-Asp-Asp-Ala-Ala-Phe-Phe-PyrS2-2C1F-BztA-Thro1] are 10 µM (≈ 19.4 µg/mL), 38 nM and 20600 nM.
In the case of `CC(=O)N1CCC[C@]12CC=CCCCC1(CCCC=CCCCOC(=O)N3CC[C@@](C(=O)N[C@@H](Cc4ccccc4Cl)C(=O)N[C@@H](Cc4csc5ccccc45)C(=O)N[C@H](CO)[C@@H](C)O)(C3)NC(=O)[C@H]([C@@H](C)O)NC(=O)[C@H](Cc3ccccc3)NC(=O)[C@H](C)NC(=O)[C@H](C)NC(=O)[C@H](CC(=O)O)NC(=O)[C@H](CC(=O)O)NC1=O)NC(=O)[C@H](CC1CCCCC1)NC(=O)[C@H](CC(=O)O)NC2=O` (stereo partly drawn) [I-1312, Ac-PL3-Asp-Cha-B5-Asp-Asp-Ala-Ala-Phe-Thr-PyrS2-2C1F-BztA-Thro1], the Solubility in “Solubility in PBS” (Solubility (uM)) turned out to be 46 µM (≈ 88.3 µg/mL). For the same compound, the IC50 in data set [1] worked out at 14 nM; in data set [2], 16100 nM.
The corresponding values for `CC(=O)N1CCC[C@]12CC=CCCCC1(CCCC=CCCCOC(=O)N3CC[C@@](C(=O)N[C@@H](Cc4ccccc4C(N)=O)C(=O)N[C@@H](Cc4csc5ccccc45)C(=O)N[C@@H](CCC(N)=O)C(N)=O)(C3)NC(=O)[C@H](CC(N)=O)NC(=O)[C@H](Cc3ccccc3)NC(=O)[C@H](C)NC(=O)[C@H](C)NC(=O)[C@H](CC(=O)O)NC(=O)[C@H](CC(=O)O)NC1=O)NC(=O)[C@H](CC(C)(C)C)NC(=O)[C@H](CC(=O)O)NC2=O` (stereo partly drawn) [I-1314, Ac-PL3-Asp-Npg-B5-Asp-Asp-Ala-Ala-Phe-Asn-PyrS2-2cbmF-BztA-Gln-NH2] are 48 µM (≈ 93.8 µg/mL), 9 nM and above 20000 nM.
Consider `CC(=O)N1CCC[C@]12CC=CCCCC1(CCCC=CCCCOC(=O)N3CC[C@@](C(=O)N[C@@H](Cc4ccccc4C(N)=O)C(=O)N[C@@H](Cc4csc5ccccc45)C(=O)N[C@@H](CCC(N)=O)C(N)=O)(C3)NC(=O)[C@H](CC(C)C)NC(=O)[C@H](Cc3ccccc3)NC(=O)[C@H](C)NC(=O)[C@H](C)NC(=O)[C@H](CC(=O)O)NC(=O)[C@H](CC(=O)O)NC1=O)NC(=O)[C@H](CC(C)(C)C)NC(=O)[C@H](CC(=O)O)NC2=O` (stereo partly drawn) [I-1315, Ac-PL3-Asp-Npg-B5-Asp-Asp-Ala-Ala-Phe-Leu-PyrS2-2cbmF-BztA-Gln-NH2], for which, in the data set “Solubility in PBS”, the “Solubility” value was found to be 10 µM (≈ 19.5 µg/mL). The IC50 in data set [1] amounted to 13 nM; in data set [2], 7200 nM.
Take `CC(=O)N1CCC[C@]12CC=CCCCC1(CCCC=CCCCOC(=O)N3CC[C@@](C(=O)N[C@@H](Cc4ccccc4C(N)=O)C(=O)N[C@@H](Cc4csc5ccccc45)C(=O)N[C@@H](CCC(N)=O)C(N)=O)(C3)NC(=O)[C@H](Cc3ccccc3)NC(=O)[C@H](Cc3ccccc3)NC(=O)[C@H](C)NC(=O)[C@H](C)NC(=O)[C@H](CC(=O)O)NC(=O)[C@H](CC(=O)O)NC1=O)NC(=O)[C@H](CC(C)(C)C)NC(=O)[C@H](CC(=O)O)NC2=O` (stereo partly drawn) [I-1316, Ac-PL3-Asp-Npg-B5-Asp-Asp-Ala-Ala-Phe-Phe-PyrS2-2cbmF-BztA-Gln-NH2]: the Solubility in the data set “Solubility in PBS” (Solubility (uM)) was 48 µM (≈ 95.4 µg/mL). In addition, the IC50 is 11 nM in data set [1] and 6800 nM in data set [2].
In the data set “Solubility in PBS” (Solubility (uM)), `CC(=O)N1CCC[C@]12CC=CCCCC1(CCCC=CCCCOC(=O)N3CC[C@@](C(=O)N[C@@H](Cc4ccccc4C(F)(F)F)C(=O)N[C@@H](Cc4csc5ccccc45)C(=O)N[C@@H](CCC(N)=O)C(N)=O)(C3)NC(=O)[C@H](CC(N)=O)NC(=O)[C@H](Cc3ccccc3)NC(=O)[C@H](C)NC(=O)[C@H](C)NC(=O)[C@H](CC(=O)O)NC(=O)[C@H](CC(=O)O)NC1=O)NC(=O)[C@H](CC(C)(C)C)NC(=O)[C@H](CC(=O)O)NC2=O` (stereo partly drawn) [I-1317, Ac-PL3-Asp-Npg-B5-Asp-Asp-Ala-Ala-Phe-Asn-PyrS2-2F3MeF-BztA-Gln-NH2] came in with a Solubility of 49 µM (≈ 97 µg/mL). Further, the values for the IC50 in data set [1] and in data set [2] were 9 nM and 9700 nM, respectively.
The corresponding values for `CC(=O)N1CCC[C@]12CC=CCCCC1(CCCC=CCCCOC(=O)N3CC[C@@](C(=O)N[C@@H](Cc4ccccc4F)C(=O)N[C@@H](Cc4csc5ccccc45)C(=O)N[C@@H](CCC(N)=O)C(N)=O)(C3)NC(=O)[C@H](CC(N)=O)NC(=O)[C@H](Cc3ccccc3)NC(=O)[C@H](C)NC(=O)[C@H](C)NC(=O)[C@H](CC(=O)O)NC(=O)[C@H](CC(=O)O)NC1=O)NC(=O)[C@H](CC(C)(C)C)NC(=O)[C@H](CC(=O)O)NC2=O` (stereo partly drawn) [I-1320, Ac-PL3-Asp-Npg-B5-Asp-Asp-Ala-Ala-Phe-Asn-PyrS2-2FF-BztA-Gln-NH2] are 44 µM (≈ 84.9 µg/mL), 10 nM and 26200 nM.
The corresponding values for `CC(=O)N1CCC[C@]12CC=CCCCC1(CCCC=CCCCOC(=O)N3CC[C@@](C(=O)N[C@@H](Cc4ccccc4F)C(=O)N[C@@H](Cc4csc5ccccc45)C(=O)N[C@@H](CCC(N)=O)C(N)=O)(C3)NC(=O)[C@H](CC(C)C)NC(=O)[C@H](Cc3ccccc3)NC(=O)[C@H](C)NC(=O)[C@H](C)NC(=O)[C@H](CC(=O)O)NC(=O)[C@H](CC(=O)O)NC1=O)NC(=O)[C@H](CC(C)(C)C)NC(=O)[C@H](CC(=O)O)NC2=O` (stereo partly drawn) [I-1321, Ac-PL3-Asp-Npg-B5-Asp-Asp-Ala-Ala-Phe-Leu-PyrS2-2FF-BztA-Gln-NH2] are 48 µM (≈ 92.6 µg/mL), 8 nM and 10900 nM.
In the data set “Solubility in PBS” (Solubility (uM)), `CC(=O)N1CCC[C@]12CC=CCCCC1(CCCC=CCCCOC(=O)N3CC[C@@](C(=O)N[C@@H](Cc4ccccc4F)C(=O)N[C@@H](Cc4csc5ccccc45)C(=O)N[C@@H](CCC(N)=O)C(N)=O)(C3)NC(=O)[C@H](Cc3ccccc3)NC(=O)[C@H](Cc3ccccc3)NC(=O)[C@H](C)NC(=O)[C@H](C)NC(=O)[C@H](CC(=O)O)NC(=O)[C@H](CC(=O)O)NC1=O)NC(=O)[C@H](CC(C)(C)C)NC(=O)[C@H](CC(=O)O)NC2=O` (stereo partly drawn) [I-1322, Ac-PL3-Asp-Npg-B5-Asp-Asp-Ala-Ala-Phe-Phe-PyrS2-2FF-BztA-Gln-NH2] yielded a Solubility of 33 µM (≈ 64.8 µg/mL). For the same compound, the IC50 in data set [1] was determined as 11 nM; in data set [2], 9100 nM.
With `CC(=O)N1CCC[C@]12CC=CCCCC1(CCCC=CCCCOC(=O)N3CC[C@@](C(=O)N[C@@H](Cc4ccccc4Br)C(=O)N[C@@H](Cc4csc5ccccc45)C(=O)N[C@@H](CCC(N)=O)C(N)=O)(C3)NC(=O)[C@H](CC(N)=O)NC(=O)[C@H](Cc3ccccc3)NC(=O)[C@H](C)NC(=O)[C@H](C)NC(=O)[C@H](CC(=O)O)NC(=O)[C@H](CC(=O)O)NC1=O)NC(=O)[C@H](CC(C)(C)C)NC(=O)[C@H](CC(=O)O)NC2=O` (stereo partly drawn) [I-1323, Ac-PL3-Asp-Npg-B5-Asp-Asp-Ala-Ala-Phe-Asn-PyrS2-2BrF-BztA-Gln-NH2], the Solubility in “Solubility in PBS” (Solubility (uM)) was 48 µM (≈ 95.6 µg/mL). Also, the IC50 in data set [1] amounted to 6 nM; in data set [2], 11700 nM.
The corresponding values for `CC(=O)N1CCC[C@]12CC=CCCCC1(CCCC=CCCCOC(=O)N3CC[C@@](C(=O)N[C@@H](Cc4ccsc4)C(=O)N[C@@H](Cc4csc5ccccc45)C(=O)N[C@@H](CCC(N)=O)C(N)=O)(C3)NC(=O)[C@H](Cc3ccccc3C(F)(F)F)NC(=O)[C@H](Cc3ccccc3)NC(=O)[C@H](C)NC(=O)[C@H](C)NC(=O)[C@H](CC(=O)O)NC(=O)[C@H](CC(=O)O)NC1=O)NC(=O)[C@H](CC(C)(C)C)NC(=O)[C@H](CC(=O)O)NC2=O` (stereo partly drawn) [I-1363, Ac-PL3-Asp-Npg-B5-Asp-Asp-Ala-Ala-Phe-2F3MeF-PyrS2-3Thi-BztA-Gln-NH2] are 12 µM (≈ 24.2 µg/mL), 9 nM and 5500 nM.
